Measured values as given in PubChem BioAssay AID1963862 (Molecular Pharmacology Branch, DTP, NCI, 2024).

Test system: KRAS patient-derived spheroids with HUVEC/MSC, viability
Test: Anticancer human tumor 941728-121-R-J1-PDC patient-derived lung adenocarcinoma cell line growth inhibition [KRAS2]
Details: for IC50: curve of first compound; for viability, T/C: stronger effect = lower value
In short: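 KRAS-mutant tumor cells were grown as spheroids with HUVEC endothelial cells and human MSCs as stroma. Targeted agents were tested alone and with KRAS pathway inhibitors. Doses started at or near clinical Cmax, or 10 microM, descending half-log.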

[1] = second compound 0.1 µM, first compound 0.0316 µM
[2] = second compound 0.1 µM, first compound 0.1 µM
[3] = second compound 0.1 µM, first compound 0.316 µM
[4] = second compound 0.1 µM, first compound 1 µM
[5] = second compound 0.1 µM, first compound 3.16 µM
[6] = second compound 0.1 µM, first compound 10 µM
[7] = second compound 0.316 µM, first compound 0.0316 µM
[8] = second compound 0.316 µM, first compound 0.1 µM
[9] = second compound 0.316 µM, first compound 0.316 µM
[10] = second compound 0.316 µM, first compound 1 µM
[11] = second compound 0.316 µM, first compound 3.16 µM
[12] = second compound 0.316 µM, first compound 10 µM
[13] = second compound 1 µM, first compound 0.0316 µM
[14] = second compound 1 µM, first compound 0.1 µM
[15] = second compound 1 µM, first compound 0.316 µM
[16] = second compound 1 µM, first compound 1 µM
[17] = second compound 1 µM, first compound 3.16 µM
[18] = second compound 1 µM, first compound 10 µM
[19] = second compound 3.16 µM, first compound 0.0316 µM
[20] = second compound 3.16 µM, first compound 0.1 µM
[21] = second compound 3.16 µM, first compound 0.316 µM
[22] = second compound 3.16 µM, first compound 1 µM
[23] = second compound 3.16 µM, first compound 3.16 µM
[24] = second compound 3.16 µM, first compound 10 µM
[25] = second compound 10 µM, first compound 0.0316 µM
[26] = second compound 10 µM, first compound 0.1 µM
[27] = second compound 10 µM, first compound 0.316 µM
[28] = second compound 10 µM, first compound 1 µM
[29] = second compound 10 µM, first compound 3.16 µM
[30] = second compound 10 µM, first compound 10 µM
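Further: spheroids exposed to agents for seven days before readout.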

SMILES	IC50 (second compound 0.1 µM) [nM]	IC50 (second compound 0.316 µM) [nM]	IC50 (second compound 1 µM) [nM]	IC50 (second compound 3.16 µM) [nM]	IC50 (second compound 10 µM) [nM]	viability, T/C [1] [%]	viability, T/C [2] [%]	viability, T/C [3] [%]	viability, T/C [4] [%]	viability, T/C [5] [%]	viability, T/C [6] [%]	viability, T/C [7] [%]	viability, T/C [8] [%]	viability, T/C [9] [%]	viability, T/C [10] [%]	viability, T/C [11] [%]	viability, T/C [12] [%]	viability, T/C [13] [%]	viability, T/C [14] [%]	viability, T/C [15] [%]	also measured
COC(=O)c1ccc2c(C(=Nc3ccc(N(C)C(=O)CN4CCN(C)CC4)cc3)c3ccccc3)c(O)[nH]c2c1 + CC1OCC2(CCN(c3cnc(Sc4ccnc(N)c4Cl)c(N)n3)CC2)C1N	< 31.6	< 31.6	< 31.6	< 31.6	< 31.6	39.2	35.5	36.7	37.2	36.6	38.2	35.3	32.1	28.8	28.8	24.6	25.6	34.4	25.5	18.5	viability, T/C [16]: 20.4%; viability, T/C [17]: 15.4%; viability, T/C [18]: 19.5%; viability, T/C [19]: 29.1%; viability, T/C [20]: 23.2%; viability, T/C [21]: 17%; viability, T/C [22]: 12.7%; viability, T/C [23]: 10.5%; viability, T/C [24]: 10.7%; viability, T/C [25]: 21.2%; viability, T/C [26]: 16%; viability, T/C [27]: 9.59%; viability, T/C [28]: 8.94%; viability, T/C [29]: 3.3%; viability, T/C [30]: 1.71%
COc1cc(Nc2ncc3c(n2)-c2ccc(Cl)cc2C(c2c(F)cccc2OC)=NC3)ccc1C(=O)O + CC1OCC2(CCN(c3cnc(Sc4ccnc(N)c4Cl)c(N)n3)CC2)C1N	137	< 31.6	< 31.6	< 31.6	< 31.6	53.1	47.6	48.5	48.5	50.3	41.6	42.3	41.9	40.2	39.2	36.6	35.3	29.8	33.4	36.6	viability, T/C [16]: 34.6%; viability, T/C [17]: 28%; viability, T/C [18]: 23.9%; viability, T/C [19]: 23.7%; viability, T/C [20]: 25.4%; viability, T/C [21]: 26.9%; viability, T/C [22]: 26.6%; viability, T/C [23]: 13%; viability, T/C [24]: 14.5%; viability, T/C [25]: 16%; viability, T/C [26]: 15.4%; viability, T/C [27]: 13.4%; viability, T/C [28]: 13.6%; viability, T/C [29]: 12.4%; viability, T/C [30]: 9.18%
O=C(c1cc(Cc2n[nH]c(=O)c3ccccc23)ccc1F)N1CCN(C(=O)C2CC2)CC1 + CC1OCC2(CCN(c3cnc(Sc4ccnc(N)c4Cl)c(N)n3)CC2)C1N	< 31.6	< 31.6	87.3	< 31.6	< 31.6	50.3	47.7	48.3	53.1	62.1	69.7	41.9	45.4	52.8	53.7	57.8	60.7	65.1	45	45.7	viability, T/C [16]: 41.6%; viability, T/C [17]: 49%; viability, T/C [18]: 58.6%; viability, T/C [19]: 31.9%; viability, T/C [20]: 36.3%; viability, T/C [21]: 35.3%; viability, T/C [22]: 38.2%; viability, T/C [23]: 41.3%; viability, T/C [24]: 45.7%; viability, T/C [25]: 26.1%; viability, T/C [26]: 22.3%; viability, T/C [27]: 29.6%; viability, T/C [28]: 28.5%; viability, T/C [29]: 35.1%; viability, T/C [30]: 29.3%
